Measurements published in US20220395500A1, “SMALL MOLECULE ACTIVATORS OF INTERFERON REGULATORY FACTOR 3 AND METHODS OF USE THEREOF” (Neuralexo, Inc., priority 2020, published 2022).

What was measured:
THP1-Dual cells = assay: THP1-Dual cytotoxicity (Cell Titer Glo, ATP); format: cell-based, human; conditions: Human Reporter Cell Line THP1; read-out: Thp1 cytotox CC50
Method in brief: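 Human THP1-Dual cells were treated across an 8-point dose-response range. Cytotoxicity was measured in-plate by CellTiter-Glo luminescence, which quantifies ATP as a marker of metabolically active cells, and CC50 was taken as the 50% cytotoxic concentration.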

[1] = test system: ISRE-firefly luciferase reporter in RAW264.7 cells; assay: RAW264.7 ISRE-firefly luciferase reporter assay; format: cell-based, mouse
Excerpt: Data is depicted as fold increase ISRE activity vs matched vehicle, plotted against log[agonist] (M).
To characterize a small directed subset of molecules known to activate IRF3, mouse macrophage cells (RAW264.7) containing an ISRE-firefly luciferase reporter with a constitutively active renilla luciferase internal control for normalization (Promega) was utilized. IRF3 can activate ISRE through direct binding and via feed-forward mechanisms through potent induction of IFNβ. […] Specifically, RAW264.7 cells containing ISRE firefly luciferase reporter were treated with indicated compounds for 3 hours and luciferase activity was determined.

cerebral ischemic injury = assay: Middle cerebral artery occlusion (MCAO), infarct volume; format: in vivo, mouse; conditions: 60 minute MCAO, 24 hours
Protocol: Mice were anesthetized and subjected to middle cerebral artery occlusion (MCAO) using the monofilament suture method. Briefly, a silicone-coated 7-0 monofilament nylon surgical suture was threaded through the external carotid artery to the internal carotid artery to block the middle cerebral artery; […] The suture was then removed to restore blood flow. Mice undergoing ischemic preconditioning followed by injurious ischemia were rested in their home cage for 72 h before receiving the second MCAO (45 min). Cerebral blood flow (CBF) was monitored throughout surgery by laser Doppler flowmetry. The mean CBF value between groups was consistent for each experiment. […] Body temperature was monitored and maintained at 37° C. with a thermostat-controlled heating pad.
Mouse brain was sliced into 7×1 mm coronal sections before 2,3,5-triphenyltetrazolium chloride TTC staining, and the volume of infarct was determined by summing of the area of infarct from individual slices. The infarct size for each image was determined using NIH image analyses. […]
IRFs are master regulators of innate immune receptors, constituting a family of DNA-binding proteins expressed in a variety of tissues. […] Infarct volume was measured 24 hours after surgery. […] Specifically, gene transcription was measured in the brain 24 hours post MCAO in LPS preconditioned wildtype, IRF3 deficient, and IRF7 deficient mice using quantitative PCR. […]

Neuro2a cells = assay: Gene induction in Neuro2a cells (qtPCR); format: cell-based, mouse; conditions: 10 ug/ml, 3 hours, compared to 5′pppRNA
Protocol: (§1) RNA was collected from cell pellets and qtPCR was performed with indicated primers. Data is depicted as mRNA fold-change versus vehicle. Values are normalized to actin and are presented as fold change over vehicle control.
(§2) Total RNA isolated from brain cortex, or RNA from cell culture, was reverse transcribed using an Omniscript Reverse Transcription kit (Qiagen). Quantitative PCR was performed using the TaqMan Gene Expression Assays (Applied Biosystems) on an ABI-prism 7700. Results were normalized to β-actin expression and analyzed relative to appropriate controls. The relative quantification of the gene of interest was determined using the comparative CT method (2^−ΔΔCt)
(§3) Since inflammatory pathways mediated by NF-κB are known to have negative effects on stroke outcome, the induction of key detrimental genes including TNF and IL-6 in response to drug treatment was evaluated. […] RNA was collected from cell pellets and qtPCR was performed with indicated primers. Values are normalized to actin and are presented as fold change over vehicle control.

[2] = test system: IRF3 related genes in brain cortical tissue; assay: DMXAA-induced IRF-related gene expression in mouse brain cortex; format: in vivo
Protocol: FIG. 7A is a bar graph depicting DMXAA-induced induction of IRF-related gene expression in mice. […] RNA was extracted and qtPCR was performed with indicated primers. Data is depicted as mRNA fold-change versus vehicle. Values depicted are group means+/−SEM; n=4 per group.
as §2
Values depicted are group means+/−SEM; n=4 per group.

BV2 cells = assay: Gene induction in BV2 cells (qtPCR); format: cell-based, mouse; conditions: 10 ug/ml, 3 hours, compared to 5′pppRNA
Protocol: as §1, §2, §3

[3] = 10 mg/kg IP, brain tissue at 3 hours

EC50 ([1]; Mus musculus, RAW264.7, expanded dose-response study, read-out: EC50 for activating mouse ISRE) [µM]	Structure (SMILES)	CC50 (THP1-Dual cells) [µM]	ISRE activation ([1]; RAW264.7, 3 hours post-treatment, 96-well)	protection against ischemic injury in mice lacking IRF3 (cerebral ischemic injury; IRF3 KO mice, 250 μg IP)	reduction in ischemic injury (infarct volume) compared to controls (cerebral ischemic injury; wild-type mice, 250 μg IP at onset of reperfusion) [fold]	induction of IRF-regulated genes RSAD2 and IFIT1 (Neuro2a cells)	IRF3 related gene expression in brain [2, 3]	induction of pro-inflammatory genes TNF in brain [2, 3]	IRF-mediated gene induction in the brain ([2]; 5-fold lower dose (2 mg/kg IP), 3 hours, compared to vehicle)	induction of IRF-regulated genes RSAD2 and IFIT1 (BV2 cells)
	COc1ccc(C(=O)Nc2cc(-c3nc4ccccc4s3)ccc2C)cc1[N+](=O)[O-] [ND-38]	44.9								
~16	Cc1ccc2c(=O)c3cccc(CC(=O)O)c3oc2c1C [DMXAA, 5,6-dimethylxanthenone-4-acetic acid]		most potent activators	not protected	2	most robust induction	significant increase	minimal induction	minimal increase	most robust induction
